Measurements published in patent publication US20230357269A1 (LES LABORATOIRES SERVIER, priority 2020, published 2023).
pIC50: −log10 of the molar value.

Biological target: human recombinant LRRK2 protein (Homo sapiens (Human), UniProt Q5S007)
Test: LRRK2 Kinase Activity Assay (ADP-Glo)
Type: biochemical
Conditions: LRRK2 wt; LRRKtide peptide and ATP substrates; 1h-incubation at 37° C.
Protocol: LRRK2 Kinase reactions were carried out in 384-well white polystyrene plates in a final volume of 6 μl using ADP-Glo™ Kinase Assay kit (Promega Corp.). Compound and substrates (LRRKtide peptide and ATP) in assay buffer were first dispensed in wells. Kinase reaction was then started by the addition of human recombinant LRRK2 protein. After 1h-incubation at 37° C., the enzymatic reaction was stopped by the addition of 6 μl of ADP-Glo Reagent-1 and an additional 40-minutes incubation at 23° C. (residual ATP depletion). A final 30-minutes incubation after 12 μL reagent-2 addition (ADP to ATP conversion and luciferin/luciferase reaction) was performed before luminescent signal acquisition (EnVision™ multimode plate reader-PerkinElmer, Inc.). Data from 10 individual concentrations of tested compounds (N=2) were fitted (XLfit™-ID Business Solutions Ltd) to deliver IC50s (compound concentration leading to 50% inhibition of reference enzymatic activity).
The compounds are dissolved to 5 mM in DMSO. When needed, solutions are sonicated in a bath sonicator.
Table 2 provides the IC50 values of the compounds according to the invention, obtained using the above-mentioned kinase assay. Activities are represented as +++, ++ and +, having the following meanings: • +++ means IC50<10 nM • ++ means 10 nM≤IC50<100 nM • + means 100 nM≤IC50<1 μM.

Sequence of human recombinant LRRK2 protein (Q5S007 whole entry): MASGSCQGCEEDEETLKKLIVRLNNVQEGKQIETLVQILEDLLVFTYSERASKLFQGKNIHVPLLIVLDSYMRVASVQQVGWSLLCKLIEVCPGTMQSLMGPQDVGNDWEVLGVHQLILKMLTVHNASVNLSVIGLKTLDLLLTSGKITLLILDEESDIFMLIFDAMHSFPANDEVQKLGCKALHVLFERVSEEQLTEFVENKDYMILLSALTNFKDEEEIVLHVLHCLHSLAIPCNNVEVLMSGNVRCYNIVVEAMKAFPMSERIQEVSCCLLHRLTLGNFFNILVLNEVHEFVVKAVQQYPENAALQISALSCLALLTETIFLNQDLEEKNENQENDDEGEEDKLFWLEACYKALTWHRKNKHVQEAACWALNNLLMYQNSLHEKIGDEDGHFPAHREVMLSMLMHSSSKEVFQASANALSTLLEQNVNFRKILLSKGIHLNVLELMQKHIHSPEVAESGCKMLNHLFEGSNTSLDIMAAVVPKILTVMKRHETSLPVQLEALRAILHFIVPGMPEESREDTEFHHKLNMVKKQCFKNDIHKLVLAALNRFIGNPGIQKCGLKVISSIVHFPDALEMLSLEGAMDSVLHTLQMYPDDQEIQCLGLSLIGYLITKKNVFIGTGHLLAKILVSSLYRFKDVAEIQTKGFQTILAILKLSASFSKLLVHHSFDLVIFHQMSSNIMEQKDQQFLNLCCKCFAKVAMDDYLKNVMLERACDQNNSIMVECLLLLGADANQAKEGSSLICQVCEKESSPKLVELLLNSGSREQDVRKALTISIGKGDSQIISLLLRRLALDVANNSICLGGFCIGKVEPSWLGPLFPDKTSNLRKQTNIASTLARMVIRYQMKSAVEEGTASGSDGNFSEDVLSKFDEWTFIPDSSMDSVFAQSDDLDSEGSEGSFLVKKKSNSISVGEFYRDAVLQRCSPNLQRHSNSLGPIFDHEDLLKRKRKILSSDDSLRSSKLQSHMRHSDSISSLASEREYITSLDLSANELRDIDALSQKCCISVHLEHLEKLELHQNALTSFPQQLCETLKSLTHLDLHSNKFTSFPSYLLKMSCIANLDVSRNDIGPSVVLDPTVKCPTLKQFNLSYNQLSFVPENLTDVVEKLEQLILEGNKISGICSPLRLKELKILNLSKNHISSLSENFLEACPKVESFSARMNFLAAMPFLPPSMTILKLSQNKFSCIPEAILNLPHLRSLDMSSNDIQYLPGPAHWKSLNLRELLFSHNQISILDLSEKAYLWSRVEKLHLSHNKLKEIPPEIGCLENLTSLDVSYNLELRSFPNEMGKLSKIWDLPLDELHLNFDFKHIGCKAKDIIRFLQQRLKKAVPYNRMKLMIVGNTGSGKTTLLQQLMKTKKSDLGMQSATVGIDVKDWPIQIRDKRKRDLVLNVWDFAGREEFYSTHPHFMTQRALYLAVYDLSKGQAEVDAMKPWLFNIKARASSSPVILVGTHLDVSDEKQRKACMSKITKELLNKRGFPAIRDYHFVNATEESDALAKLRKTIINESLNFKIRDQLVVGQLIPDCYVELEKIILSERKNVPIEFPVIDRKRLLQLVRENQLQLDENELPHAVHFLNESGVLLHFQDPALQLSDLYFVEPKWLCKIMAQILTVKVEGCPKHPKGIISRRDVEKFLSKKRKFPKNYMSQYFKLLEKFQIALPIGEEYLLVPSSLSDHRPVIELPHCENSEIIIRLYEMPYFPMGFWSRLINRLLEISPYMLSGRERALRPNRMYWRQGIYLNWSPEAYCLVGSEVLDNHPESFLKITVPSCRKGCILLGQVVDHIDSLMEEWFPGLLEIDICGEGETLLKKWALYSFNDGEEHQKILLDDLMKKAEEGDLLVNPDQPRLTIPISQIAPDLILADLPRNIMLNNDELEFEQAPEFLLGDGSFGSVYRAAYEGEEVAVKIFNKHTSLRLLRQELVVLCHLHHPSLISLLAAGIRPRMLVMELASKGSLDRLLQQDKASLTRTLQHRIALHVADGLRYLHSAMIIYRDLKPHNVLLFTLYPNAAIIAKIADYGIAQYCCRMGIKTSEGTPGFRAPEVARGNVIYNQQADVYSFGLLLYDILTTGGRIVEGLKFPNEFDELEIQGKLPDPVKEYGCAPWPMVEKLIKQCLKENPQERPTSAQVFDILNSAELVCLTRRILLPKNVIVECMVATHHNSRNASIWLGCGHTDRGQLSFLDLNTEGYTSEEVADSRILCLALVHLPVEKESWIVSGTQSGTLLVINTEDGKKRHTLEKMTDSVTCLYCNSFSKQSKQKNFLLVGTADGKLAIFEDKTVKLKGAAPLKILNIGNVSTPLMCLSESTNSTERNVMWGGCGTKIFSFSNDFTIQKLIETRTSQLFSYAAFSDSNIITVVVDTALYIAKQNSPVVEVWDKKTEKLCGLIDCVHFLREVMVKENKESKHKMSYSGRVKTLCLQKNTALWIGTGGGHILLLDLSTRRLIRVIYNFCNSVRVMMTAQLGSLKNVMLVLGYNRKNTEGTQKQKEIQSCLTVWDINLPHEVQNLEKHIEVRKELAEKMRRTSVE

pIC50	Compound
> 8.00	CC1OC(=O)NCCCOc2ccc3[nH]nc(c3c2)-c2cc(F)cc1c2 (centres unmarked) [Example 56, 4-fluoro-7-methyl-8,14-dioxa-10,19,20-triazatetracyclo[13.5.2.1^2,6.0^18,21]tricosa-1(20),2,4,6(23),15,17,21-heptaen-9-one]
> 8.00	O=C1NCCCOc2ccc3[nH]nc(c3c2)-c2cc(Cl)cc(c2)CO1 [Example 27, 4-chloro-8,14-dioxa-10,19,20-triazatetracyclo[13.5.2.1^2,6.0^18,21]tricosa-1(20), 2,4,6(23),15,17,21-heptaen-9-one]
> 8.00	C[C@@H]1CCNC(=O)OCc2cccc(c2)-c2n[nH]c3ccc(nc23)O1 [Example 157, (13R)-13-methyl-8,14-dioxa-10,19,20,22-tetraazatetracyclo[13.5.2. 1^2,6.0^18,21]tricosa-1(20),2(23),3,5,15,17,21-heptaen-9-one]
> 8.00	CC1COC(=O)NCCCOc2ccc3[nH]nc(c3c2)-c2cnn1c2 (centres unmarked) [Example 110, 6-methyl-8,14-dioxa-4,5,10,19,20-pentaazatetracyclo[13.5.2.1^2,5.0^18,21]tricosa-1(20),2(23),3,15,17,21-hexaen-9-one]
> 8.00	O=C1NC[C@@H](F)COc2ccc3[nH]nc(c3c2)-c2cncc(n2)CO1 [Example 172, (12R)-12-fluoro-8,14-dioxa-4,10,19,20,23-pentaazatetracyclo[13.5.2.1^2,6.0^18,21]tricosa-1(20),2(23),3,5,15,17,21-heptaen-9-one]
> 8.00	O=C1NCCCOc2ccc3[nH]nc(c3c2)-c2cc(cc(N3C[C@@H]4C[C@H]3CO4)c2)CO1 [Example 40]
> 8.00	O=C1NCCC2(CC2)Oc2ccc3[nH]nc(c3c2)-c2cccc(c2)CO1 [Example 175, 8′,14′-dioxa-10′,19′,20′-triazaspiro[cyclopropane-1,13′-tetracyclo[13.5.2.1^2,6.0^18,21]tricosane]-1′(20′),2′(23′),3′,5′,15′(22′),16′,18′(21′)-heptaen-9′-one]
7.00 to 8.00	Cc1c(F)cc2cc1C(C)OC(=O)NCCCOc1ccc3[nH]nc-2c3c1 (centres unmarked) [Example 88, 4-fluoro-5,7-dimethyl-8,14-dioxa-10,19,20-triazatetracyclo[13.5.2.1^2,6.0^18,21]tricosa-1(20),2(23),3,5,15(22),16,18(21)-heptaen-9-one]
> 8.00	O=C1NCCCOc2ccc3[nH]nc(c3c2)-c2cc(cc(N3CCCC3=O)c2)CO1 [Example 74, 4-(2-oxopyrrolidin-1-yl)-8,14-dioxa-10,19,20-triazatetracyclo[13.5.2. 1^2,6.0^18,21]tricosa-1(20),2(23),3,5,15(22),16,18(21)-heptaen-9-one]
> 8.00	O=C1NCCCOc2ccc3[nH]nc(c3c2)-c2cc(cc(N3CCN(C4COC4)CC3)c2)CO1 [Example 15, 4-[4-(oxetan-3-yl)piperazin-1-yl]-8,14-dioxa-10,19,20-triazatetracyclo[13.5.2.1^2,6.0^18,21]tricosa-1(20),2,4,6(23),15,17,21-heptaen-9-one]
> 8.00	O=C1NCCCOc2ccc3[nH]nc(c3c2)-c2cc(cc(N3CCC(F)(F)CC3)c2)CO1 [Example 20, 4-(4,4-difluoropiperidin-1-yl)-8,14-dioxa-10,19,20-triazatetracyclo[13.5.2.1^2,6.0^18,21]tricosa-1(20),2,4,6(23),15,17,21-heptaen-9-one]
> 8.00	O=C1NCCCOc2ccc3[nH]nc(c3c2)-c2cc(cc(OCCN3CCOCC3)c2)CO1 [Example 66, 4-[2-(morpholin-4-yl)ethoxy]-8,14-dioxa-10,19,20-triazatetracyclo[13.5.2.1^2,6.0^18,21]tricosa-1(20),2(23),3,5,15(22),16,18(21)-heptaen-9-one]
> 8.00	COC1CN(c2cc3cc(c2)-c2n[nH]c4ccc(cc24)OCCCNC(=O)OC3)C1 [Example 32, 4-(3-methoxyazetidin-1-yl)-8,14-dioxa-10,19,20-triazatetracyclo[13.5.2.1^2,6.0^18,21]tricosa-1(20),2,4,6(23),15,17,21-heptaen-9-one]
> 8.00	N#CCc1cc2cc(c1)-c1n[nH]c3ccc(cc13)OCCCNC(=O)OC2 [Example 77, 2-{9-oxo-8,14-dioxa-10,19,20-triazatetracyclo[13.5.2.1^2,6.0^18,21]tricosa-1(20),2(23),3,5,15(22),16,18(21)-heptaen-4-yl}acetonitrile]
> 8.00	C[C@@H]1CCNC(=O)OCCn2cc(cc2C#N)-c2n[nH]c3ccc(cc23)O1 [Example 151, (13R)-13-methyl-9-oxo-8,14-dioxa-5,10,19,20-tetraazatetracyclo[13.5.2. 1^2,5.0^18,21]tricosa-1(20),2(23),3,15(22),16,18(21)-hexaene-4-carbonitrile]
> 8.00	N#CC1CCN(c2cc3cc(c2)-c2n[nH]c4ccc(cc24)OCCCNC(=O)OC3)CC1 [Example 33, 1-{9-oxo-8,14-dioxa-10,19,20-triazatetracyclo[13.5.2.1^2,6.0^18,21]tricosa-1(20),2,4,6(23),15,17,21-heptaen-4-yl}piperidine-4-carbonitrile]
> 8.00	CC1OC(=O)NCCCOc2ccc3[nH]nc(c3c2)-c2cccc1c2 (centres unmarked) [Example 22, 7-methyl-8,14-dioxa-10,19,20-triazatetracyclo[13.5.2.1^2,6.0^18,21]tricosa-1(20), 2,4,6(23),15,17,21-heptaen-9-one]
> 8.00	C[C@@H]1CCNC(=O)OCCn2ncc(n2)-c2n[nH]c3ccc(cc23)O1 [Example 159, (13R)-13-methyl-8,14-dioxa-4,5,10,19,20,23-hexaazatetracyclo[13.5.2.1^2,5.0^18,21]tricosa-1(20),2(23),3,15,17,21-hexaen-9-one]
> 8.00	O=C1NCCCOc2ccc3[nH]nc(c3c2)-c2cnn(c2)CCO1 [Example 51, 8,14-dioxa-4,5,10,19,20-pentaazatetracyclo[13.5.2.1^2,5.0^18,21]tricosa-1(20),2(23),3,15(22),16,18(21)-hexaen-9-one]
> 8.00	CCC1OC(=O)NCCCOc2ccc3[nH]nc(c3c2)-c2cccc1c2 (single isomer, unassigned) [Example 116, (7R)- or (7S)-7-ethyl-8,14-dioxa-10,19,20-triazatetracyclo[13.5.2.1^2,6.0^18,21]tricosa-1(20),2,4,6(23),15,17,21-heptaen-9-one]
> 8.00	C[C@@H]1CCNC(=O)OCc2cc(ccn2)-c2n[nH]c3ccc(cc23)O1 [Example 117, (13R)-13-methyl-8,14-dioxa-5,10,19,20-tetraazatetracyclo[13.5.2.1^2,6.0^18,21]tricosa-1(20),2,4,6(23),15,17,21-heptaen-9-one]
7.00 to 8.00	CC(C)C1COC(=O)NCCCOc2ccc3[nH]nc(c3c2)-c2cnn1c2 (centres unmarked) [Example 112, 6-(propan-2-yl)-8,14-dioxa-4,5,10,19,20-pentaazatetracyclo[13.5.2.1^2,5.0^18,21]tricosa-1(20),2(23),3,15(22),16,18(21)-hexaen-9-one]
> 8.00	COc1cc2cc(c1F)C(C)OC(=O)NCCCOc1ccc3[nH]nc-2c3c1 (centres unmarked) [Example 95, 5-fluoro-4-methoxy-7-methyl-8,14-dioxa-10,19,20-triazatetracyclo[13.5.2.1^2,6.0^18,21]tricosa-1(20),2(23),3,5,15(22),16,18(21)-heptaen-9-one]
> 8.00	CC1CCNC(=O)OCc2cccc(c2)-c2n[nH]c3ccc(cc23)O1 (centres unmarked) [Example 50, 13-methyl-8,14-dioxa-10,19,20-triazatetracyclo[13.5.2.1^2,6.0^18,21]tricosa-1(20),2,4,6(23),15,17,21-heptaen-9-one]
> 8.00	O=C1NCCCOc2ccc3[nH]nc(c3c2)-c2cc(cc(CN3CCOCC3)c2)CO1 [Example 41, 4-[(morpholin-4-yl)methyl]-8,14-dioxa-10,19,20-triazatetracyclo[13.5.2.1^2,6.0^18,21]tricosa-1(20),2,4,6(23),15,17,21-heptaen-9-one]
> 8.00	C[C@@H]1CCNC(=O)OCc2cncc(c2)-c2n[nH]c3cc(F)c(cc23)O1 [Example 124, (13R)-16-fluoro-13-methyl-8,14-dioxa-4,10,19,20-tetraazatetracyclo[13.5.2.1^2,6.0^18,21]tricosa-1(20),2,4,6(23),15,17,21-heptaen-9-one]
> 8.00	CCN(CC)c1cc2cc(c1)-c1n[nH]c3ccc(cc13)OCCCNC(=O)OC2 [Example 47, 4-(diethylamino)-8,14-dioxa-10,19,20-triazatetracyclo[13.5.2.1^2,6.0^18,21]tricosa-1(20),2,4,6(23),15,17,21-heptaen-9-one]
7.00 to 8.00	C[C@H]1OC(=O)NCCCOc2ccc3[nH]nc(c3c2)-c2cc(F)cc1c2 (single isomer, unassigned) [Example 108, (7R)- or (7S)-4-fluoro-7-methyl-8,14-dioxa-10,19,20-triazatetracyclo[13.5.2.1^2,6.0^18,21]tricosa-1(20),2,4,6(23),15,17,21-heptaen-9-one]
> 8.00	CN1CCN(c2cc3cc(c2)-c2n[nH]c4ccc(cc24)OCCCNC(=O)OC3)CC1 [Example 31, 4-(4-methylpiperazin-1-yl)-8,14-dioxa-10,19,20-triazatetracyclo[13.5.2.1^2,6.0^18,21]tricosa-1(20),2,4,6(23),15,17,21-heptaen-9-one]
